{"source": "patent US7098372B1", "about": "“Pharmaceutical compositions and methods of using secreted frizzled related protein” (Wyeth, priority 1999, dated 2006)", "key": {"human SARP-2": {"target": "T1, human SARP-2 (Homo sapiens, UniProt Q8N474)", "T1 construct": "endogenous in cells; host or cells: hOB-03-C5 and hOB-03-CE6 human osteoblast cell lines treated with PGE2", "T1 sequence (Q8N474 32-314)": "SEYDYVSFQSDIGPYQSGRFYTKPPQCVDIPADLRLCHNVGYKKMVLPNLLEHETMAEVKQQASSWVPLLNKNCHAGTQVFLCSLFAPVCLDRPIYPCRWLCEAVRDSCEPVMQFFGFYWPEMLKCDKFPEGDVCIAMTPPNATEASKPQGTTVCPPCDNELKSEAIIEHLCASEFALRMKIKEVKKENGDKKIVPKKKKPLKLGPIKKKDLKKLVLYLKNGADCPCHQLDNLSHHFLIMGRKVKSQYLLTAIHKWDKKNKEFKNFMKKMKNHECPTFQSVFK", "experiment": "Reversal of PGE2-accelerated hOB cell death, Coulter cell counter", "assay_type": "cell-based", "details": "co-treatment with PGE2, hOB-03-C5 and hOB-03-CE6 cells", "method": "(§1) These experiments were performed in a similar manner to the ones depicted in FIG. 10. However, for these experiments, the cells were co-treated with either vehicle control (i.e., 0.1% ethanol) or PGE2 in the absence or presence of sense (control) or antisense initiation-site directed phosphorothioate oligonucleotides to human SARP-2. The results are presented as either the % relative to the day 0 control (i.e., ˜200,000 cells per well of a 6 well plate) or as the % relative to the vehicle treated control. The results of this experiment indicate that co-treatment of the hOB cells with the antisense oligonucleotide to SARP-2 reverses the ability of PGE2 to accelerate the rate of cell death, while co-treatment with the sense (control) oligonucleotide as no effect on this process.\nas §1, with “The results of this experiment indicate that co-treatment of the hOB cells with the antisense oligonucleotide to SARP-2 reverses the ability of PGE2 to accelerate the rate of cell death, while co-treatment with the sense (control) oligonucleotide as no effect on this process.” left out"}, "hOB SFRP mRNA": {"test_system": "hOB SFRP mRNA", "experiment": "hOB SFRP mRNA levels after treatment with various agents (method not given)", "assay_type": "cell-based, human", "details": "for effect on hOB SFRP mRNA levels: hOB-03-C5 cells or hOB-03-CE6 cells; for effect on hOB SFRP message expression: various hOB cell lines"}, "hOB-01-C1-PS-09 cells [1]": {"test_system": "hOB-01-C1-PS-09 cells", "experiment": "Alkaline phosphatase activity in hOB-01-C1-PS-09 cells", "assay_type": "cell-based, human", "source_text": "(§2) Unlike the parental hOB-01-C1 cell line, the hOB-01-C1-PS-09 cells proliferate 2- to 3-times faster at the permissive temperature with a doubling time of once every 2–3 days (FIG. 22A). However, like the parental cells, the hOB-01-C1-PS-09 cells stop dividing at the non-permissive temperature (FIG. 22A). […] Alkaline phosphatase and osteocalcin are two important markers of the osteocytic lineage.\nIn addition to vitamin D3 and PTH, the hOB-01-C1-PS-09 cells also respond to additional bone-active agents: for example, glucocorticoids and transforming growth factor (TGF)-β1. Treatment of the cells with the synthetic glucocorticoid, dexamethasone, up-regulates alkaline phosphatase activity approximately 2-fold at 34° C. (FIG. 25), and this effect is once again enhanced when the cells are incubated at 39° C."}, "hOB-01-C1-PS-09 cells [2]": {"test_system": "hOB-01-C1-PS-09 cells", "experiment": "Osteocalcin secretion from hOB-01-C1-PS-09 cells", "assay_type": "cell-based, human", "source_text": "as §2\nHowever, the secosteroid up-regulates production of this bone-specific matrix protein 11-fold when the cells are incubated at 39° C. It should be noted that the basal levels of alkaline phosphatase expression and osteocalcin secretion by the hOB-01-C1-PS-09 cells are similar to the parental cell line. Thus, both morphologically and biochemically, the hOB-01-C1-PS-09 cells resemble the parental hOB-01-C1 cells and are therefore a reliable in vitro model to study human pre-osteocyte biology."}, "Wnt signaling": {"test_system": "Wnt signaling", "experiment": "TCF-luciferase reporter gene assay of Wnt signaling", "assay_type": "cell-based, human", "details": "transfected cDNA, hOB-01-C1-PS-09 or hOB-02-C1-PS-02 cells", "method": "SARP-2 or human Frzb-1 expression plasmids downregulates Wnt signaling (when compared to the pcDNA3.1 empty vector control) in the hOB cells as measured by the TCF-luciferase reporter gene assay. This assay is an authentic measurement of Wnt signaling and β-catenin nuclear activity.\nIn order to determine if the up-regulation of SFRP-1/FRP-1/SARP-2 gene expression results in an antagonism of the Wnt signaling pathway, hOB-03-CE6 cells were treated with PGE2 and the resulting cells probed with β-catenin monoclonal antibody. Overexpression of Wnt proteins in cells up-regulates a signaling protein known as β-catenin (reviewed in Moon et al. 1997 Cell 88: 725–728; Barth et al. 1997 Curr. Opin. Cell Biol. 9: 683–690; and Nusse 1997 Cell 89: 321–323). […] Therefore, hOB-03-CE6 cells were plated and treated with PGE2 as described in Example 1, except that total cellular protein was extracted and a Western blot analysis for β-catenin was performed using a monoclonal antibody to the protein (Transduction Laboratories) as previously described (Bodine et al. 1996 Endocrinology 137: 4592–4604; Melkonyan et al. 1997 Proc. Natl. Acad. Sci. USA 94: 13636–13641). […] Both human and rat SFRP-1/FRP-1/SARP-2, as well as human Frzb-1/FrzB/Fritz, suppressed TCF-luciferase activity in the hOB cells."}}, "data": [{"molecule": "5′-GCGCCCGATGCCCATGCC-3′ (phosphorothioate, further chemistry not given here) [antisense oligonucleotide to SARP-2, antisense initiation-site directed phosphorothioate oligonucleotide to human SARP-2]", "values": [{"measurement": "effect on the ability of PGE2 to accelerate the rate of hOB cell death", "setting": "human SARP-2", "result": "reversed"}]}, {"molecule": "5′-GGCATGGGCATCGGGCGC-3′ (phosphorothioate, further chemistry not given here) [sense (control) oligonucleotide, sense (control) initiation-site directed phosphorothioate oligonucleotide to human SARP-2]", "values": [{"measurement": "effect on the ability of PGE2 to accelerate the rate of hOB cell death", "setting": "human SARP-2", "result": "no effect"}]}, {"molecule": "CC1=C(/C=C/C(C)=C\\C=C\\C(C)=C\\C(=O)O)C(C)(C)CCC1", "note": "[9-cis-retinoic acid]", "values": [{"measurement": "effect on hOB SFRP mRNA levels", "setting": "hOB SFRP mRNA", "result": "increases"}]}, {"molecule": "C[C@]12CC[C@@H]3c4ccc(O)cc4CC[C@H]3[C@@H]1CC[C@@H]2O", "note": "[17β-estradiol]", "values": [{"measurement": "effect on hOB SFRP message expression", "setting": "hOB SFRP mRNA", "result": "suppresses"}]}, {"molecule": "CC1=C(/C=C/C(C)=C/C=C/C(C)=C/C(=O)O)C(C)(C)CCC1", "note": "[all-trans-retinoic acid]", "values": [{"measurement": "effect on hOB SFRP mRNA levels", "setting": "hOB SFRP mRNA", "result": "increases"}]}, {"molecule": "C[C@@H]1C[C@H]2[C@@H]3CCC4=CC(=O)C=C[C@]4(C)[C@@]3(F)[C@@H](O)C[C@]2(C)[C@@]1(O)C(=O)CO", "note": "[dexamethasone]", "values": [{"measurement": "up-regulation of alkaline phosphatase activity", "setting": "hOB-01-C1-PS-09 cells [1]; 34° C.", "result": "approximately 2 fold"}]}, {"molecule": "C=C1CC[C@H](O)C/C1=C/C=C1\\CCC[C@]2(C)[C@@H]([C@H](C)CCCC(C)C)CC[C@@H]12", "note": "[vitamin D3]", "values": [{"measurement": "enhancement of up-regulation of alkaline phosphatase activity at 39° C.", "setting": "hOB-01-C1-PS-09 cells [1]; cells incubated at 39° C.", "result": "about 4 fold"}, {"measurement": "osteocalcin secretion", "setting": "hOB-01-C1-PS-09 cells [2]; 34° C.", "result": "unable to induce"}, {"measurement": "up-regulation of osteocalcin production", "setting": "hOB-01-C1-PS-09 cells [2]; 39° C.", "result": 11, "unit": "fold"}, {"measurement": "effect on hOB SFRP message expression", "setting": "hOB SFRP mRNA", "result": "suppresses"}]}, {"molecule": "insulin-like growth factor (IGF)-I: insulin-like growth factor (IGF)-I", "values": [{"measurement": "effect on hOB SFRP message expression", "setting": "hOB SFRP mRNA", "result": "suppresses"}]}, {"molecule": "interleukin (IL)-1β: interleukin (IL)-1β", "values": [{"measurement": "effect on hOB SFRP mRNA levels", "setting": "hOB SFRP mRNA", "result": "increases"}]}, {"molecule": "human Frzb-1/FrzB/Fritz: human Frzb-1 expression plasmid transfected into hOB cells (protein) AACEPVRIPLCKSLPWNMTKMPNHLHHSTQANAILAIEQFEGLLGTHCSPDLLFFLCAMYAPICTIDFQHEPIKPCKSVCERARQGCEPILIKYRHSWPENLACEELPVYDRGVCISPEAIVTADGADFPMDSSNGNCRGASSERCKCKPIRATQKTYFRNNYNYVIRAKVKEIKTKCHDVTAVVEVKEILKSSLVNIPRDTVNLYTSSGCLCPPLNVNEEYIIMGYEDEERSRLLLVEGSIAEKWKDRLGKKVKRWDMKLRHLGLSKSDSSNSDSTQSQKSGRNSNPRQARN", "values": [{"measurement": "TCF-luciferase activity", "setting": "Wnt signaling", "result": "suppressed"}]}]}
